Data taken from patent US12281363B2, “Methods for detecting antiviral-drug resistant virus” (Secretary of State for Health and Social Care, priority 2018, dated 2025).
pIC50: −log10 of the molar value. Where two headings read alike, the source gives them in different places.

Tested on: HSV-1
Experiment: Plaque reduction assay, HSV-1 clinical isolates on Vero cells
Format: cell-based
Conditions: Human alphaherpesvirus 1, Vero
From the text: Viral isolates were used to infect a sub-confluent monolayer of Vero cells at a concentration of 75 or 50 plaque forming units (PFU) per well for HSV-1 and HSV-2, respectively. […] CMC medium typically used to create a semisolid interface and prevents indiscrimate viral spreading. Other materials (e.g. agar) may also be used to create this interface.
Cells were fixed with 10% formalin and stained with crystal violet before enumeration of the plaques (microscopic observation or use of fluorescent antibodies for detection is also suitable). The data obtained from these experiments were then expressed as percent inhibition of viral infectivity relative to the no drug control.
Definitions of phenotypic drug susceptibility classification as sensitive or resistant were as follows: ACV, <3 μM or >40 μM; PCV, <10 μM or >40 μM; CDV, <24 μM or >30 μM; FOS, <250 μM or >400 μM; and ACV, <6.5 μM or >40 μM; PCV, <38 μM or >40 μM; FOS, <250 μM or >400 μM for HSV-1 and HSV-2, respectively. Any IC50 values falling in between these sensitive and resistant cut-offs were reported as intermediate resistance.
The phenotype (i.e. reactivity to a drug) of the virus was characterised by the plaque reduction assay as described above.

`Nc1ccn(C[C@@H](CO)OCP(=O)(O)O)c(=O)n1` [Cidofovir, cidofovir] was tested. Which pIC50 (isolate HPG032, HSV-1 TK 183* (437_438insA), read-out: Drug susceptibility Cidofovir (CDV)) did it give?
The pIC50 was over 4.62.

What about the pIC50 (isolate HPG033, HSV-1 TK I358L (1072A>C), also TK T287M, read-out: Drug susceptibility (IC50 value)) of the same molecule?
The pIC50 was 4.82.

And the pIC50 (isolate HPG033, HSV-1 TK I358L (1072A>C), also TK T287M, read-out: Drug susceptibility Cidofovir (CDV))?
Its pIC50 is over 4.62.

And the pIC50 (isolate HPG033, HSV-1 pol N1046T (3137A>C), also TK T287M, pol A1169T, read-out: Drug susceptibility (IC50 value))?
The pIC50 was 4.82.

And the pIC50 (isolate HPG033, HSV-1 pol N1046T (3137A>C), also TK T287M, pol A1169T, read-out: Drug susceptibility Cidofovir (CDV))?
Its pIC50 is over 4.62.

What about the pIC50 (isolate HPG035, HSV-1 pol S239L (716C>T), also pol S724N, read-out: Drug susceptibility (IC50 value)) of the same molecule?
The pIC50 was 4.40.

And the pIC50 (isolate HPG035, HSV-1 pol S239L (716C>T), also pol S724N, read-out: Drug susceptibility Cidofovir (CDV))?
Its pIC50 is under 4.52.

What about the pIC50 (isolate HPG037, HSV-1 TK L69M (205>A), also TK Y239H, read-out: Drug susceptibility Cidofovir (CDV)) of the same molecule?
Its pIC50 is over 4.62.

What about the pIC50 (isolate HPG037, HSV-1 TK R256W (766C>T), read-out: Drug susceptibility (IC50 value)) of the same molecule?
The pIC50 was 5.36.

What about the pIC50 (isolate HPG037, HSV-1 TK R256W (766C>T), read-out: Drug susceptibility Cidofovir (CDV)) of the same molecule?
Its pIC50 is over 4.62.

What about the pIC50 (isolate HPG037, HSV-1 TK Y239H (715T>C), read-out: Drug susceptibility (IC50 value)) of the same molecule?
The pIC50 was 5.36.

What about the pIC50 (isolate HPG037, HSV-1 TK Y239H (715T>C), read-out: Drug susceptibility Cidofovir (CDV)) of the same molecule?
Its pIC50 is over 4.62.

What about the pIC50 (isolate HPG039, HSV-1 TK 85* or H58fs (169delC, 170delC, 171delC, or 172delC), read-out: Drug susceptibility (IC50 value)) of the same molecule?
The pIC50 was 5.53.

What about the pIC50 (isolate HPG039, HSV-1 TK 85* or H58fs (169delC, 170delC, 171delC, or 172delC), read-out: Drug susceptibility Cidofovir (CDV)) of the same molecule?
The pIC50 was over 4.62.

What about the pIC50 (isolate HPG040, HSV-1 pol S911N (2732G>A), also TK deletion (C) nt 896-900, pol A1169T, read-out: Drug susceptibility (IC50 value)) of the same molecule?
The pIC50 was 4.95.

What about the pIC50 (isolate HPG040, HSV-1 pol S911N (2732G>A), also TK deletion (C) nt 896-900, pol A1169T, read-out: Drug susceptibility Cidofovir (CDV)) of the same molecule?
Its pIC50 is over 4.62.

And the pIC50 (isolate HPG041, HSV-1 pol S911N (2732G>A), also pol A1169T, read-out: Drug susceptibility (IC50 value))?
The pIC50 was 4.75.

What about the pIC50 (isolate HPG041, HSV-1 pol S911N (2732G>A), also pol A1169T, read-out: Drug susceptibility Cidofovir (CDV)) of the same molecule?
Its pIC50 is over 4.62.

What about the pIC50 (isolate HPG042, HSV-1 pol A972V (2915C>T), also TK deletion (C) nt 881-885, pol A1169T, read-out: Drug susceptibility (IC50 value)) of the same molecule?
Its pIC50 is over 5.81.

And the pIC50 (isolate HPG042, HSV-1 pol A972V (2915C>T), also TK deletion (C) nt 881-885, pol A1169T, read-out: Drug susceptibility Cidofovir (CDV))?
The pIC50 was over 4.62.

What about the pIC50 (isolate HPG042, HSV-1 pol G22R (64G>A), also TK deletion (C) nt 881-885, pol A1169T, read-out: Drug susceptibility (IC50 value)) of the same molecule?
The pIC50 was over 5.81.

What about the pIC50 (isolate HPG042, HSV-1 pol G22R (64G>A), also TK deletion (C) nt 881-885, pol A1169T, read-out: Drug susceptibility Cidofovir (CDV)) of the same molecule?
Its pIC50 is over 4.62.

What about the pIC50 (isolate HPG043, HSV-1 TK 183* (437_438insA), read-out: Drug susceptibility (IC50 value)) of the same molecule?
Its pIC50 is 5.78.

And the pIC50 (isolate HPG043, HSV-1 TK 183* (437_438insA), read-out: Drug susceptibility Cidofovir (CDV))?
The pIC50 was over 4.62.

And the pIC50 (isolate HPG045, HSV-1 TK L49R (146T>G), read-out: Drug susceptibility (IC50 value))?
Its pIC50 is over 5.81.

And the pIC50 (isolate HPG045, HSV-1 TK L49R (146T>G), read-out: Drug susceptibility Cidofovir (CDV))?
Its pIC50 is over 4.62.

And the pIC50 (isolate HPG045, HSV-1 pol L419I (1255C>A), also TK L49R, pol A1169T, read-out: Drug susceptibility (IC50 value))?
Its pIC50 is over 5.81.

What about the pIC50 (isolate HPG045, HSV-1 pol L419I (1255C>A), also TK L49R, pol A1169T, read-out: Drug susceptibility Cidofovir (CDV)) of the same molecule?
The pIC50 was over 4.62.

What about the pIC50 (isolate HPG046, HSV-1 TK I166N (497T>A), read-out: Drug susceptibility (IC50 value)) of the same molecule?
The pIC50 was 5.68.

What about the pIC50 (isolate HPG046, HSV-1 TK I166N (497T>A), read-out: Drug susceptibility Cidofovir (CDV)) of the same molecule?
The pIC50 was over 4.62.

What about the pIC50 (isolate HPG047, HSV-1 pol E680 (2039A>C), also TK deletion (C) nt 548-553, pol A1169T, read-out: Drug susceptibility Cidofovir (CDV)) of the same molecule?
The pIC50 was over 4.62.

And the pIC50 (isolate HPG051, HSV-1 pol D83A (248A>C), also TK R176stop, read-out: Drug susceptibility (IC50 value))?
Its pIC50 is 5.31.

And the pIC50 (isolate HPG051, HSV-1 pol D83A (248A>C), also TK R176stop, read-out: Drug susceptibility Cidofovir (CDV))?
The pIC50 was over 4.62.

What about the pIC50 (isolate HPG052, HSV-1 TK Q34* (100C>T), read-out: Drug susceptibility (IC50 value)) of the same molecule?
The pIC50 was 5.32.

And the pIC50 (isolate HPG052, HSV-1 TK Q34* (100C>T), read-out: Drug susceptibility Cidofovir (CDV))?
The pIC50 was over 4.62.

What about the pIC50 (isolate HPG053, HSV-1 pol L802R + A834S (2405T>G, 2500G>T), also TK R176W, read-out: Drug susceptibility Cidofovir (CDV)) of the same molecule?
The pIC50 was over 4.62.

What about the pIC50 (isolate HPG053, HSV-1 pol S911N (2732G>A), also TK R176W, pol A1169T, read-out: Drug susceptibility (IC50 value)) of the same molecule?
The pIC50 was 5.11.

What about the pIC50 (isolate HPG053, HSV-1 pol S911N (2732G>A), also TK R176W, pol A1169T, read-out: Drug susceptibility Cidofovir (CDV)) of the same molecule?
Its pIC50 is over 4.62.

What about the pIC50 (isolate HPG054, HSV-1 pol E992K (2974G>A), also TK insert (G) nt 430-436, pol A1169T, read-out: Drug susceptibility (IC50 value)) of the same molecule?
The pIC50 was 5.41.

And the pIC50 (isolate HPG054, HSV-1 pol E992K (2974G>A), also TK insert (G) nt 430-436, pol A1169T, read-out: Drug susceptibility Cidofovir (CDV))?
The pIC50 was over 4.62.

And the pIC50 (isolate HPG055, HSV-1 TK V204G (611T>G), also pol A1169AT, read-out: Drug susceptibility (IC50 value))?
Its pIC50 is over 5.81.

What about the pIC50 (isolate HPG055, HSV-1 TK V204G (611T>G), also pol A1169AT, read-out: Drug susceptibility Cidofovir (CDV)) of the same molecule?
Its pIC50 is over 4.62.

And the pIC50 (read-out: Drug susceptibility (IC50 value), isolate HPG005, HSV-1 TK A192T (574G>A))?
Its pIC50 is 5.66.

What about the pIC50 (read-out: Drug susceptibility (IC50 value), isolate HPG006, HSV-1 pol G121S (361G>A), also a TK resistance mutation (footnote a)) of the same molecule?
Its pIC50 is 5.21.

And the pIC50 (read-out: Drug susceptibility (IC50 value), isolate HPG012, HSV-1 pol G985E (2954G>A), also TK A93V)?
Its pIC50 is 5.55.

And the pIC50 (read-out: Drug susceptibility (IC50 value), isolate HPG016, HSV-1 pol A1169T (3505G>A))?
The pIC50 was 4.78.

And the pIC50 (read-out: Drug susceptibility (IC50 value), isolate HPG037, HSV-1 TK L69M (205>A), also TK Y239H)?
The pIC50 was 5.36.

And the pIC50 (read-out: Drug susceptibility (IC50 value), isolate HPG042, HSV-1 TK frameshift (881delC to 885delC))?
Its pIC50 is over 5.81.

And the pIC50 (read-out: Drug susceptibility (IC50 value), isolate HPG047, HSV-1 pol E680 (2039A>C), also TK deletion (C) nt 548-553, pol A1169T)?
Its pIC50 is 5.54.

And the pIC50 (read-out: Drug susceptibility Cidofovir (CDV), isolate HPG005, HSV-1 TK A192T (574G>A))?
The pIC50 was over 4.62.

What about the pIC50 (read-out: Drug susceptibility Cidofovir (CDV), isolate HPG006, HSV-1 pol G121S (361G>A), also a TK resistance mutation (footnote a)) of the same molecule?
The pIC50 was over 4.62.

What about the pIC50 (read-out: Drug susceptibility Cidofovir (CDV), isolate HPG012, HSV-1 pol G985E (2954G>A), also TK A93V) of the same molecule?
The pIC50 was over 4.62.

What about the pIC50 (read-out: Drug susceptibility Cidofovir (CDV), isolate HPG016, HSV-1 pol A1169T (3505G>A)) of the same molecule?
The pIC50 was over 4.62.

And the pIC50 (read-out: Drug susceptibility Cidofovir (CDV), isolate HPG042, HSV-1 TK frameshift (881delC to 885delC))?
The pIC50 was over 4.62.
